# Earlier results in patent US10729708B2, “Stabilized glycopeptide antibiotic formulations” (XELLIA PHARMACEUTICALS APS, priority 2016, dated 2020).
# What was measured:
# Settings in all cases: QC strain, CLSI protocol
# [1] = test system: Staphylococcus aureus ATCC 29213
# [2] = test system: Enterococcus faecalis ATCC 29212
# [3] = test system: Streptococcus pnemoniae ATCC 49619
compound,measurement,setting,value
CN[C@H](CC(C)C)C(=O)NC1C(=O)N[C@@H](CC(N)=O)C(=O)N[C@H]2C(=O)N[C@H]3C(=O)NC(C(=O)N[C@@H](C(=O)O)c4cc(O)cc(O)c4-c4cc3ccc4O)[C@H](O)c3ccc(c(Cl)c3)Oc3cc2cc(c3O[C@@H]2OC(CO)[C@@H](O)C(O)C2O[C@H]2CC(C)(N)[C@H](O)C(C)O2)Oc2ccc(cc2Cl)C1O.Cl (stereo partly drawn) [Vancomycin],Referent MIC ranges,[1],0.5 to 2 µg/mL
same,Referent MIC ranges,[2],1 to 4 µg/mL
same,Referent MIC ranges,[3],0.125 to 0.5 µg/mL
